Reference: patent publication US20220202739A1, “ENDOCANNABINOID MIMETIC AND ANTI-INFLAMMATORY COMPOUND CONTAINING COMPOSITIONS, METHODS OF PREPARATION AND USES THEREOF” (priority 2019, published 2022)

What was measured:
CERS3 = assay: Gene expression custom microarray, pooled keratinocyte line (Example 3): CERS3; assay type: cell-based, human; details: pooled keratinocytes, 20 ppm, 24 hr
Procedure: (§1) Cell cultures: Received and began culture of pooled keratinocyte line from Promocell (C-12006; Lot #448Z026). Cells were seeded into a 75 cm2 flask and 2 6 well dishes for expansion and exposure per manufacturer's protocol using Keratinocyte Growth Medium (C2011B), Keratinocyte Supplement Mix (C39016) and CaCl (C34005). 2 ml of prepared solution were added to each of the 6 wells and 7 ml was added to the 75 cm2 flask.
(§2) Experimental phase: When the appropriate quantity of cells were grown, they were detached as described above, but at the final step were seeded into each well of one or more 6 well dishes. Each well received 2 ml of the cells suspended in suspension so they were seeded equally. The dishes were returned to the incubator until 85-95% confluency is reached.
(§3) It was at this stage that all wells were rinsed in PBS after aspirating the growth media. The compound(s) to be tested were previously mixed into a suitable solvent (e.g., DMSO or ethanol) that can be diluted to the desired concentration of test compound (10 μl) in the culture wells without exceeding maximum solvent concentrations and adversely effecting cell viability, and mixed with Basal Keratinocyte Media. NOTE: Standard maximum levels of solvent are 0.1% for DMSO and 0.5% for ETOH. The concentration for each tested compound/natural extract is generally listed in the left-hand column of Table 4. For certain compositions (e.g., compositions 15 and 16), other concentrations were used and are noted in the body of Table 4.
(§4) Every 2 wells on the 6 well plate served as a biological replicate for the purposes of RNA isolation and genetic expression evaluations making each 6 well dish an n=3 for the test compound contained in the media. […]
(§5) At the end of the 24 hr time period, the plates were removed from the incubator, the test media aspirated, and the cells rinsed with PBS. […] Allow 1 minute for saturation of the membrane and then centrifuge for 2 minutes to complete the RNA elution. • Quantify the quantity of RNA and store at −20 C° until use (no more than 1 month) […]

TLR2 = assay: Gene expression custom microarray, pooled keratinocyte line (Example 3): TLR2; assay type: cell-based, human; details: pooled keratinocytes, 20 ppm, 24 hr
Procedure: as §1, §2, §3, §4, §5

Structure (SMILES) | ↑CERS3 gene expression, fold increase or decrease vs untreated cells (CERS3) [fold] | ↑TLR2 gene expression, fold increase or decrease vs untreated cells (TLR2) [fold]
C=C(C)[C@@H]1CCC(C)=C[C@H]1c1c(O)cc(CCCCC)cc1O [CBD, cannabidiol, reference compound] | 1.7 | 2.8
CCCCCCCCCCCCCCCC(=O)NCCO [N-palmitoylethanolamide] | 2 | −1.3
CC(C)[C@]12O[C@H]1[C@@H]1O[C@]13[C@]1(O[C@H]1C[C@H]1C4=C(CC[C@@]13C)C(=O)OC4)[C@@H]2O [Triptolide] | −1.5 | −2.9
